Data from patent publication US20210163552A1, “PEPTIDE FOR INDUCING REGENERATION OF TISSUE, AND USE THEREOF” (SHIONOGI & CO., LTD., priority 2017, published 2021).
Where no end group is shown, it is not given here.

Assays:
[1] = Stability of peptides in plasma (Example 6); format: in vitro ADME; details: rat plasma on ice, assay concentration 5 μg/mL; for stability in rat plasma compared to 2-44 / stability in rat plasma, Peptide-3 and Peptide-6 compared with each other: 30 and 60 minutes (FIG. 3)
Description: A 5 mL tube previously charged with 60 μL of a 10% EDTA-2K was charged with 3 mL of whole blood collected from Crl: CD (SD) rats, and the contents were allowed to stand at room temperature for 30 minutes, and then centrifuged at 4° C. and at 3,000 rpm (1600×g) for 10 minutes. The supernatant was collected to be used as a blank plasma. The plasma obtained was stored on ice and only used on the day of the stability test.
Each of the peptide at position 2 to position 44 of human HMGB1 (2-44), the modified peptide prepared in Example 1 (Peptide-3), and the modified peptide prepared in Example 4 (Peptide-6) was prepared into a solution at 375 μg/mL with distilled water from a stock solution in which each peptide was dissolved in a 0.1% aqueous TFA solution at 1 mg/mL. Eight microliters of the solution was added to 592 μL of the blank plasma to prepare a sample for the stability test (assay concentration: 5 μg/mL). The sample for stability test was allowed to stand on ice, and 50 μL was collected immediately after the addition, and 30 and 60 minutes after the addition. To 50 μL of the collected sample were added 250 μL of 270 mmol/L citric acid solution/130 mmol/L EDTA-2K aqueous solution (4:1, v/v), and 50 μL of a 0.1% aqueous TFA solution, and mixed. To the mixture was added 350 μL of methanol and mixed, and further 100 μL of acetonitrile was added thereto and mixed, and the mixture was once frozen with dry ice. After 5 to 60 minutes, the frozen sample was thawed at room temperature, and the supernatant obtained by centrifugation at 4° C. and at 14,000×g for 3 minutes was collected in an amount of 400 μL, dried and solidified with a centrifugal concentrator (Spin Dryer Light VC-36R, manufactured by TAITEC CORPORATION), and dissolved in 200 μL of a 1% TFA/2% ACN Buffer, and filtrated with a filter (0.22 μm) to obtain samples for the measurement.
The samples for the measurement were introduced into high-performance liquid chromatograph-single quadrupolar mass spectrometer to detect the monitor ions peculiar to each of the peptides. From separately prepared samples of which concentrations were known, a calibration curve was drawn in a concentration range of from 0.1 to 10 μg/mL, and an inverse regression was obtained from peak areas of chromatograms obtained by measurements of each sample to obtain a peptide concentration in the samples. For the peptide concentration at each time point, a remaining rate (%) which was calculated by defining one immediately after the addition as 100 was plotted against the time after the addition (FIG. 3).

[2] = system: murine bone marrow-derived stromal cell line ST2; experiment: Measurements of cell-migration activity (Example 2); format: cell-based; parameters: key: five levels of scores (−, ±, +, ++, +++); five levels of scores (−, ±, +, ++, +++); five levels of scores (−, ±, +, ++, +++); five levels of scores (−, ±, +, ++, +++); five levels of scores (−, ±, +, ++, +++); details: ST2 cells, peptide at 10 μM, cultured overnight, score from photographed images
Description: Cells of murine bone marrow-derived stromal cell line ST2 (RCB0224, RIKEN BioResource Research Center) were removed from a dish using TrypLE Express (Thermo Fisher Scientific), and collected by centrifugation at 25° C. and 1,500 rpm for 5 minutes. The cell pellets were prepared into a concentration of 7×10^5 cells/mL with RPMI 1640/10% FBS/1% PenStrep (Gibco), and seeded at 70 μL/insert well on a 24-well plate set with a culture insert (Nippon Genetics Co., Ltd.). After 24 hours, the culture insert was taken out, and the cells were washed once with RPMI 1640. Each of the peptide samples (a peptide of position 2 to position 44 of human HMGB1 (2-44), and the five kinds of modified peptides Peptide-1 to -5 prepared in Example 1), each prepared at 10 μM with an assay medium (RPMI 1640/0.1% FBS) was added in an amount of 550 μL, and the cells were further cultured overnight. As a negative control (NC), only the assay medium was added. After the culture, the cells were fixed, stained with DiffQuik, and photographed. The degree of cell migration of each group from the photographed images was evaluated with five levels of scores (−, ±, +, ++, +++). In addition, each of the peptide samples was subjected to three test runs under the same conditions.

| Sequence | peptide concentration in the stability test sample (quantifiable lower limit) ([1]; 30 minutes after the addition) | stability in rat plasma compared to 2-44 [1] | stability in rat plasma, Peptide-3 and Peptide-6 compared with each other [1] | degree of cell migration, 1st Run [2] | degree of cell migration, 2nd Run [2] | degree of cell migration, 3rd Run [2] |
| --- | --- | --- | --- | --- | --- | --- |
| GKGDPKKPRGKMSSYAFFVQTCREEHKKKHPDASVNFSEFSKK [Peptide 2-44, GKGDPKKPR GKMSSYAFFVQTCREEHKKKHPDASVNFSEFSKK, reference compound] | ≤ 0.5 µg/mL | – | – | – | – | – |
| GKGDPKKPRGKMSSYAFFVQTCREEHKKKHPDASVNFSEFSPP [Peptide-6, GKGDPKKPR GKMSSYAFFVQTCREEHKKKHPDASVNFSEFSPP] | – | stable as compared to 2-44 | of the same level | – | – | – |
| MGKGDPKKPRGKMSSYAFFVQTCREEHKKKHPDASVNFSEFSKA (MGKGDPKKPRGKMSSYAFFVQTCREEHKKKHPDASVNFSEFSKA) [Peptide-4] | – | – | – | ++ | + | +++ |
| MGKGDPKKPRGKMSSYAFFVQTCREEHKKKHPDASVNFSEFSKE (MGKGDPKKPRGKMSSYAFFVQTCREEHKKKHPDASVNFSEFSKE) [Peptide-5] | – | – | – | ++ | ++ | ++ |
| MGKGDPKKPRGKMSSYAFFVQTCREEHKKKHPDASVNFSEFSKP (MGKGDPKKPRGKMSSYAFFVQTCREEHKKKHPDASVNFSEFSKP) [Peptide-1] | – | – | – | +++ | + | +++ |
| MGKGDPKKPRGKMSSYAFFVQTCREEHKKKHPDASVNFSEFSPK (MGKGDPKKPRGKMSSYAFFVQTCREEHKKKHPDASVNFSEFSPK) [Peptide-2] | – | – | – | +++ | ++ | +++ |
| MGKGDPKKPRGKMSSYAFFVQTCREEHKKKHPDASVNFSEFSPP [Peptide-3, MGKGDPKKPRGKMSSYAFFVQTCREEHKKKHPDASVNFSEFSPP] | – | stable as compared to 2-44 | of the same level | – | – | – |
